Source: ChEMBL document CHEMBL1909046, “DrugMatrix in vitro pharmacology data”

What was measured:
[1] = target: C-C chemokine receptor type 2 (Homo sapiens, UniProt P41597); format: cell membranes, CHO-K1, Membrane; details: cho-k1; further: in other assays of this panel Not Active means under 50% inhibition at 10 µM
[2] = target: Aldo-keto reductase family 1 member B1 (Rattus norvegicus, UniProt P07943); test: biochemical; format: tissue-based, Lens of camera-type eye;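 further: inhibition of aldose reductase enzyme activity, measured with DL-glyceraldehyde as the substrate; in other assays of this panel Not Active means under 50% inhibition at 10 µM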
[3] = DRUGMATRIX: Calcium Channel Type L, Dihydropyridine radioligand binding (ligand: [3H] Nitrendipine); format: cell membranes, Rattus norvegicus, Wistar, Cerebral cortex, Membrane; details: Not Active = under 50% inhibition at 10 µM
[4] = target: Histamine H2 receptor (Homo sapiens, UniProt P25021); format: cell membranes, CHO-K1, Membrane; details: for Ki: read-out: Ki; on all read-outs here: in other assays of this panel Not Active means under 50% inhibition at 10 µM
[5] = target: Melanocortin receptor 4 (Homo sapiens, UniProt P32245); format: cell membranes, Membrane; details: hek293; further: in other assays of this panel Not Active means under 50% inhibition at 10 µM
[6] = DRUGMATRIX: Phorbol Ester radioligand binding (ligand: [3H] PDBu); format: cell membranes, Mus musculus, ICR, Brain, Membrane; details: Not Active = under 50% inhibition at 10 µM

Melanocortin receptor 4, sequence (P32245 whole entry): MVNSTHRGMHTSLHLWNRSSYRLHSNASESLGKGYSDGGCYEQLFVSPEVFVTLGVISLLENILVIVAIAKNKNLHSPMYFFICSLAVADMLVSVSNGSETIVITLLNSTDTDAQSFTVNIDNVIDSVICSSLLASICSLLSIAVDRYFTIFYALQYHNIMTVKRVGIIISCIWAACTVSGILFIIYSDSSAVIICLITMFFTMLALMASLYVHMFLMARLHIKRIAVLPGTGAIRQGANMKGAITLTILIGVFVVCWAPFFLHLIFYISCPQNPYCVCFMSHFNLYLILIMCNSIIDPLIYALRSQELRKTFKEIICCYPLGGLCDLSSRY
C-C chemokine receptor type 2, sequence (P41597 whole entry): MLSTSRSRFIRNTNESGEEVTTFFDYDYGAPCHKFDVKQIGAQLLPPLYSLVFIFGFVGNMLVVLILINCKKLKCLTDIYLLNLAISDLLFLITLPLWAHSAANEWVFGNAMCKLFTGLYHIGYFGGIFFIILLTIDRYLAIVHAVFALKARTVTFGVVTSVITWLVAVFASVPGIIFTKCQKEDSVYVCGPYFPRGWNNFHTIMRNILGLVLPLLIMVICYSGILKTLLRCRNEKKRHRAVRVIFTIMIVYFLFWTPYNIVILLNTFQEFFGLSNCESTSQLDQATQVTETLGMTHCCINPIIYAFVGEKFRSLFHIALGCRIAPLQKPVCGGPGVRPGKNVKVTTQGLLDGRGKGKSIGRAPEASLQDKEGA
Histamine H2 receptor, sequence (P25021 whole entry): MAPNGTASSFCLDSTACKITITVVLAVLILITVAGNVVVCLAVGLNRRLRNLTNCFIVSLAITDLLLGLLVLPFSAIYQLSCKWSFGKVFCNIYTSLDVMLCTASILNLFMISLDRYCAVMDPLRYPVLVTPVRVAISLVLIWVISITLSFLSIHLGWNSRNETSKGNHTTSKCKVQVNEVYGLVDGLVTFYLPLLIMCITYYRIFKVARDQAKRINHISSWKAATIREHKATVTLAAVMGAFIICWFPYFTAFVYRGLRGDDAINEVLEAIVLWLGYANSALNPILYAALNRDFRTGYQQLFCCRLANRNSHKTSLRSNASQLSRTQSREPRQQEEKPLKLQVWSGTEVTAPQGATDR

For `CN1C[C@H](CNC(=O)OCc2ccccc2)C[C@@H]2c3cccc4c3c(cn4C)C[C@H]21` [METERGOLINE], the IC50 [1] was “Not Active”, the IC50 [2] was “Not Active” and the IC50 [3] was “Not Active”. The Ki [3] was “Not Active”, the IC50 ([4]; read-out: IC50) was 0.975 µM and the Ki [4] was 0.959 µM. The IC50 [5] was “Not Active”, the IC50 [6] was “Not Active” and the Ki [6] was “Not Active”.

With `Cc1[nH]c(=O)c(C#N)cc1-c1ccncc1` [MILRINONE] the IC50 [1] was “Not Active”, the IC50 [2] was “Not Active” and the IC50 [3] was “Not Active”. The Ki [3] was “Not Active”, the IC50 ([4]; cho-k1) was “Not Active” and the IC50 [5] was “Not Active”. For the same compound, the IC50 [6] was “Not Active” and the Ki [6] was “Not Active”.

With `O=C1CC[C@@]2(O)[C@H]3Cc4ccc(O)c5c4[C@@]2(CCN3CC2CC2)[C@H]1O5` [NALTREXONE] the IC50 [1] was “Not Active”, the IC50 [2] was “Not Active” and the IC50 [3] was “Not Active”. The Ki [3] was “Not Active”, the IC50 ([4]; cho-k1) was “Not Active” and the IC50 [5] was “Not Active”. The IC50 [6] was “Not Active” and the Ki [6] was “Not Active”.

With `COC(=O)Nc1nc2ccc(C(=O)c3ccccc3)cc2[nH]1` [MEBENDAZOLE] the IC50 [1] was “Not Active”, the IC50 [2] was “Not Active” and the IC50 [3] was “Not Active”. For the same compound, the Ki [3] was “Not Active”, the IC50 ([4]; cho-k1) was “Not Active” and the IC50 [5] was “Not Active”. For the same compound, the IC50 [6] was “Not Active” and the Ki [6] was “Not Active”.

In the case of `CC(=O)O[C@]1(C(C)=O)CC[C@H]2[C@@H]3C[C@H](C)C4=CC(=O)CC[C@]4(C)[C@H]3CC[C@@]21C` [MEDROXYPROGESTERONE ACETATE], the IC50 [1] is reported as “Not Active”, the IC50 [2] is reported as “Not Active” and the IC50 [3] is reported as “Not Active”. The Ki [3] was “Not Active”, the IC50 ([4]; read-out: IC50) was 27.9 µM and the Ki [4] was 27.5 µM. The IC50 [5] was “Not Active”, the IC50 [6] was “Not Active” and the Ki [6] was “Not Active”.

For `Cc1cn([C@H]2C=C[C@@H](CO)O2)c(=O)[nH]c1=O` [STAVUDINE], the IC50 [1] was “Not Active”, the IC50 [2] was “Not Active” and the IC50 [3] was “Not Active”. For the same compound, the Ki [3] was “Not Active”, the IC50 ([4]; cho-k1) was “Not Active” and the IC50 [5] was “Not Active”. For the same compound, the IC50 [6] was “Not Active” and the Ki [6] was “Not Active”.

In the case of `Cc1cnc(NC(=O)C2=C(O)c3ccccc3S(=O)(=O)N2C)s1` [MELOXICAM], the IC50 [1] is reported as “Not Active”, the IC50 [2] is reported as “Not Active” and the IC50 [3] is reported as “Not Active”. The Ki [3] was “Not Active”, the IC50 ([4]; cho-k1) was “Not Active” and the IC50 [5] was “Not Active”. The IC50 [6] was “Not Active” and the Ki [6] was “Not Active”.

With `CC(O)C(=O)O` (configuration not stated) [LACTIC ACID] the IC50 [1] was “Not Active”, the IC50 [2] was “Not Active” and the IC50 [3] was “Not Active”. The Ki [3] was “Not Active”, the IC50 ([4]; cho-k1) was “Not Active” and the IC50 [5] was “Not Active”. The IC50 [6] was “Not Active” and the Ki [6] was “Not Active”.

In the case of `C1CCN2C[C@@H]3C[C@@H](CN4CCCC[C@@H]34)[C@H]2C1` [SPARTEINE], the IC50 [1] is reported as “Not Active”, the IC50 [2] is reported as “Not Active” and the IC50 [3] is reported as “Not Active”. The Ki [3] was “Not Active”, the IC50 ([4]; cho-k1) was “Not Active” and the IC50 [5] was “Not Active”. For the same compound, the IC50 [6] was “Not Active” and the Ki [6] was “Not Active”.

In the case of `CC(N)C12CC3CC(CC(C3)C1)C2` (configuration not stated) [RIMANTADINE], the IC50 [1] is reported as “Not Active”, the IC50 [2] is reported as “Not Active” and the IC50 [3] is reported as “Not Active”. The Ki [3] was “Not Active”, the IC50 ([4]; cho-k1) was “Not Active” and the IC50 [5] was “Not Active”. For the same compound, the IC50 [6] was “Not Active” and the Ki [6] was “Not Active”.
